Source: US20100036088A1, “Selective poly-N-substituted glycine antibiotics” (priority 2008, published 2010)
Square brackets hold non-standard residues; d marks the D form. Peptide text beside a SMILES is read from it. Gly(N-CH2CH2-imidazol-4-yl) = O=C(O)CNCCc1c[nH]cn1; Nspe = C[C@H](NCC(=O)O)c1ccccc1; Nlys = NCCCCNCC(=O)O

Tests used:
human erythrocytes = test: Hemolysis assay; format: cell-based
How it was run: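 Peptoid serial dilutions in PBS pH 7.4 were combined with an equal volume of 20 vol % washed human red cells (heparinised blood) for 1 h at 37 °C. After dilution and pelleting at 1200 g, released haemoglobin in supernatant was read at A350, scaled between PBS and 0.2 vol % Triton X-100 controls.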

E. coli JM109 = format: cell-based
From the text: (§1) An initial set of 15 ampetoid analogs was synthesized to determine whether peptoids are affected by structural and sequence modifications in a manner consistent with AMP activities. The designs for ampetoids in this library were derived from two antibacterial and selective amphipathic dodecamers, 1 and 2. Peptoid 1 [H-(Nlys-Nspe-Nspe)4—NH2] is composed of 2/3 Nspe, the peptoid analog of phenylalanine, and 1/3 Nlys, the peptoid analog of lysine (see FIG. 1 for the structures of representative peptoid monomers and corresponding N-substituents). Peptoid 2 [H-(Nlys-Nssb-Nspe)4—NH2] contains 1/3 isoleucine-like Nssb monomers in place of Nspe. The variant sequences were designed to effect changes in chirality, length, hydrophobicity, charge, and amphipathicity. All of these compounds were tested for antibacterial activity against representative BSL1 Gram-negative (E. coli JM109) and Gram-positive (B. subtilis BR151) bacterial strains. As an initial measure of selectivity, the lytic activity of the peptoids was determined against human erythrocytes. Table 1 summarizes the sequences synthesized, the solvent composition at RP-HPLC elution as a relative measure of molecular hydrophobicity, and antibacterial and hemolytic activities.
(§2) Antibacterial assays. MICs were determined according to CLSI M7-A6 protocols in a 96-well microtiter plate. In test wells, 50 μL bacterial inoculum (5×10^5 CFU/ml) in Mueller-Hinton broth (MHB) was added to 50 μL peptoid solution in MHB (prepared by 1:2 serial dilutions). Positive controls contained 50 μL inoculum and 50 μL MHB without peptoid. […] MIC values reported were reproducible between three independent experimental replicates, each consisting of two parallel trials. Broad-spectrum antimicrobial susceptibility testing was performed against BSL2 pathogens by Nova Biologicals, Inc. (Conroe, Tex.).

B. subtilis BR151 = format: cell-based; details: Table 1
From the text: as §1, §2

E. coli (ATCC 35218) = format: cell-based; details: ATCC 35218
How it was run: (§3)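 MICs by broth microdilution per CLSI M7-A6 in cation-adjusted Mueller-Hinton broth, using 2:1 serial dilutions of peptoid and a bacterial inoculum of 1×10^6 CFU/mL. Values reproducible over three experiments, each with two parallel trials.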

B. subtilis (ATCC 6633) = format: cell-based; details: ATCC 6633
How it was run: as §3

[1] = tested on: A549 lung epithelial cells; test: MTS assay, metabolic inhibition
Protocol: The biocompatibility of selected oligomers with A549 lung epithelial cells was evaluated using the MTS [3-(4,5-dimethylthiazol-2-yl)-5-(3-carboxymethoxyphenyl)-2-(4-sulfophenyl)-2H-tetrazolium] assay.
MTS Assays. A549 carcinoma-derived lung epithelial cells (ATTC CCL-185) were cultured in Ham's F12K media (ATTC, Manassas, Va.). A peptoid solution plate (100 μL/well) was prepared by serial dilution of aqueous peptoid stocks in media. Peptoid solutions were transferred onto a 96-well plate of day-old cell monolayers containing 100 μL/well media with ˜5000 cells/well. MTS reagent (Promega Corporation, Madison, Wis.) (40 μL/well) was added to each well and the plate was incubated at 37° C. for 3 h, after which absorbance at 490 nm was determined. Percent inhibition was determined as [1−(A−Atest blank)/(Acontrol−Ablank)]×100, where A is the absorbance of the test well and Acontrol the average absorbance of wells with cells exposed to media and MTS (no peptoid). Atest blank (media, MTS, and peptoid) and Ablank (media and MTS) were background absorbances measured in the absence of cells. The average of six replicates are reported, and error bars show one standard deviation.

[2] = tested on: Staphyloccus aureus (ATCC #25923); test: Murine intraperitoneal infection model; format: in vivo; details: mouse, 4 mg/kg I.P.; eleven mice treated with 1-Nhis6,12
Protocol: Using a murine peritoneal injection mouse model, the ability of peptoids to treat infection was evaluated in vivo. The results from three separate studies of peptoid 1 and two of peptoid 1-Nhis6,12 against saline treated controls are shown in FIG. 7. The horizontal line represents the geometric mean of each population.
Murine intraperitoneal infection model. Bacteria was prepared by inoculating 5 mL of MHB with a single colony of Staphyloccus aureus (ATCC #25923) from a freshly streaked plate and grown overnight at 37 C. The following morning, the bacteria was subcultured by diluting 1/3 in MHB and grown for approximately 1.5 hours. The bacteria were then diluted 10-fold in a 5% mucin in PBS solution and thoroughly mixed. A sample was reserved to later determine the amount of bacteria the mice received.
Mice were weighed, marked, and injected I.P. with 200 uL of S. aureus inoculum. Four hours post infection, mice were treated I.P. with 4 mg/kg peptoid (˜100 ug per mouse). The infection is allowed to proceed overnight. Mice were euthanized by CO2 asphyxiation after 24 hours, and the peritoneal cavity was exposed and lavaged with 5 mL PBS. The lavage was mixed and reserved on ice until plating. […] Colonies were counted the following day, and the CFU/ml of each sample was calculated. […]

SMILES: C[C@H](c1ccccc1)N(CC(N)=O)C(=O)CN(C(=O)CN(CCCCN)C(=O)CN(C(=O)CN(C(=O)CN(CCCCN)C(=O)CN(C(=O)CN(C(=O)CN(CCCCN)C(=O)CN(C(=O)CN(C(=O)CNCCCCN)[C@H](C)c1ccccc1)[C@H](C)c1ccccc1)[C@H](C)c1ccccc1)[C@H](C)c1ccccc1)[C@H](C)c1ccccc1)[C@H](C)c1ccccc1)[C@H](C)c1ccccc1 [1enantiomer]
- HD10 (10% hemolytic dose) (human erythrocytes; Table 1, human erythrocytes): 16 µM
- HD50 (50% hemolytic dose) (human erythrocytes; Table 1, human erythrocytes): 86 µM
- E. coli MIC (E. coli JM109; Table 1, E. coli JM109): 3.5 µM
- B. subtilis MIC (B. subtilis BR151): 0.88 µM

SMILES: C[C@@H](c1ccccc1)N(CC(=O)N(CCc1cnc[nH]1)CC(=O)N(CCCCN)CC(=O)N(CC(=O)N(CC(=O)N(CCCCN)CC(=O)N(CC(=O)N(CCc1cnc[nH]1)CC(N)=O)[C@@H](C)c1ccccc1)[C@@H](C)c1ccccc1)[C@@H](C)c1ccccc1)C(=O)CN(CCCCN)C(=O)CN(C(=O)CN(C(=O)CNCCCCN)[C@@H](C)c1ccccc1)[C@@H](C)c1ccccc1 [1-Nhis6,12] (H-[Nlys][Nspe][Nspe][Nlys][Nspe][Gly(N-CH2CH2-imidazol-4-yl)][Nlys][Nspe][Nspe][Nlys][Nspe][Gly(N-CH2CH2-imidazol-4-yl)]-NH2)
- E. coli MIC (E. coli (ATCC 35218)): >50 µM
- B. subtilis MIC (B. subtilis (ATCC 6633)): 1.6 µM
- ID10 relative to that of pexiganan [1]: 20 times
- mice that died prematurely during the exposure period [2]: eight
- HD10 (human erythrocytes): >110/>110 μM
- HD50 (human erythrocytes): >110/>110 μM
- HD10 (10% hemolytic dose) (human erythrocytes; red cells of human, 1 h): >110/>110 μM
- HD50 (50% hemolytic dose) (human erythrocytes; red cells of human, 1 h): >110/>110 μM
- MICs (E. coli JM109; JM109): < 7 µM
